No end group written: not given here.
Experiments:
B. subtilis CMCC63501 = details: B. subtilis CMCC63501; MHB, 37°C, 18-24 h; at least three times in duplicate
From the text: (§1) E. coli ATCC25922, P. aeruginosa ATCC27853, S. aureus ATCC29213, S. epidermidis ATCC12228, S. faecalis ATCC29212 and B. subtilis CMCC63501 were obtained from the College of Veterinary Medicine, Northeast Agricultural University (Harbin, China), E. coli K88, E. coli CVCC1515 and P. aeruginosa ATCC15442 were bestowed by Prof. J.H. Wang (Gene Engineering Laboratory, Feed Research Institute, Chinese Academy of Agricultural Sciences Beijing, China) and E. coli UB1005 was kindly provided by Prof. Q.S. Qi (State Key Laboratory of Microbial Technology, Shandong University, China). […] Briefly, 50 µl of approximate 0.5–1 × 10^6 colony forming units (CFU)/ml of cells were diluted in Mueller-Hinton broth and distributed to 96-well plate, 50 µl of twofold peptides were added and the plates was incubated at 37°C for 18–24 h. The MIC values were calculated as the lowest peptide concentration that prevented visible turbidity and negative control of the pure broth without microbes. The tests were performed at least three times in duplicate.

E. coli ATCC25922 [1] = details: E. coli ATCC25922; MHB, 37°C, 18-24 h; at least three times in duplicate
From the text: as §1

E. coli CVCC1515 = details: E. coli CVCC1515; MHB, 37°C, 18-24 h; at least three times in duplicate
From the text: as §1

E. coli K88 = details: MHB, 37°C, 18-24 h, at least three times in duplicate
From the text: as §1

E. coli UB1005 [2] = details: E. coli UB1005; MHB, 37°C, 18-24 h; at least three times in duplicate
From the text: as §1

P. aeruginosa ATCC15442 = details: P. aeruginosa ATCC15442; MHB, 37°C, 18-24 h; at least three times in duplicate
From the text: as §1

P. aeruginosa ATCC27853 = details: P. aeruginosa ATCC27853; MHB, 37°C, 18-24 h; at least three times in duplicate
From the text: as §1

P. aeruginosa variant 1 = details: P. aeruginosa variant 1, obtained by step-wise culture with ciprofloxacin hydrochloride; MHB, 37°C, 18-24 h
From the text: as §1

P. aeruginosa variant 2 = details: P. aeruginosa variant 2, obtained by step-wise culture with gentamicin; MHB, 37°C, 18-24 h
From the text: as §1

S. pullorum C79-13 = details: S. pullorum C79-13; MHB, 37°C, 18-24 h; at least three times in duplicate
From the text: as §1

S. typhimurium ATCC14028 = details: S. typhimurium ATCC14028; MHB, 37°C, 18-24 h; at least three times in duplicate
From the text: as §1

S.aureus ATCC29213 = details: S.aureus ATCC29213; MHB, 37°C, 18-24 h; at least three times in duplicate
From the text: as §1

S.epidermidis ATCC12228 = details: S.epidermidis ATCC12228; MHB, 37°C, 18-24 h; at least three times in duplicate
From the text: as §1

S.faecalis ATCC29212 = details: S.faecalis ATCC29212; MHB, 37°C, 18-24 h; at least three times in duplicate
From the text: as §1

[3] = test system: Gram-negative and Gram-positive strains; experiment: MIC over all tested strains (range, geometric mean); format: cell-based; design: GM (geometric mean of MIC values from all microbial strains): unit not given here; details: all strains of Table 2
From the text: as §1

E. coli ATCC25922 [4] = experiment: MIC after treatment with serum, enzymes and heat; format: cell-based, Escherichia coli
From the text: as §1
The stability of peptides was tested in the MIC assay in different environments, including salt sensitivity, human serum, thermal stability and susceptibility to enzymes. For salt sensitivity, 0.5–1 × 10^6 CFU/ml of P. aeruginosa ATCC27853 and E. coli ATCC25922 were treated with peptides, while different salts were added to MHB, and the final concentrations of physiological salts were as follows: 150 mM NaCl, 4.5 mM KCl, 1 mM MgCl2, 6 µM NH4Cl, 8 µM ZnCl2, 4 µM FeCl3 and […] [33]. Except salt sensitivity, only E. coli ATCC25922 was treated with peptides. […] For testing peptide sensitivity to the proteolytic enzymes, the peptides were incubated in advance at 37°C for 1 h with a 1 mg/ml final concentration of the proteolytic enzymes (trypsin, pepsin, papain and proteinase K). For testing thermal stability, incubation occurred at 100°C for 1 h. After these treatments, the procedures were same as MIC assay described above.

E. coli UB1005 [5] = experiment: Cytoplasmic membrane electrical potential, diSC3-5; format: cell-based, Escherichia coli; details: diSC3-5 release over 600 s
Experimental: Peptides could alter the electrical potential of cytoplasmic membrane, and this potential that was measured by using E. coli UB1005 cells and diSC3-5 (Sigma), a membrane potential-sensitive fluorescent dye, as previously described, [35]. E. coli UB1005 was cultured to logarithmic phase in MHB, harvested by centrifugation, washed twice with buffer (5 mM of HEPES and 20 mM of glucose, pH 7.4) and resuspended to an OD600 of 0.05 in the identical buffer. The dye (diSC3-5) was added to above buffer at a final concentration of 0.4 µM. And the bacteria were incubated to take up the dye for 90 min. KCl was added to a final concentration of 0.1 M for equilibrating K^+ concentration between extracellular and intracellular environment, and then the bacteria were incubated at room temperature for 10 min. The cell suspension (2 ml) was placed in a 1-cm cuvette, and the peptides were added to different concentrations. The fluorescence intensity changes were monitored by using an F-4500 fluorescence spectrophotometer (Hitachi, Japan) with an excitation wavelength of 622 nm and an emission wavelength of 670 nm.

For RFRRLFRIRVRVLKKI-NH2 [R-FV-I16], the MIC (B. subtilis CMCC63501) was 1 µM, the MIC (E. coli ATCC25922 [1]) was 1 µM and the MIC (E. coli CVCC1515) was 2 µM. It also gave an MIC (E. coli K88) of 2 µM, an MIC (E. coli UB1005 [2]) of 4 µM and an MIC (P. aeruginosa ATCC15442) of 2 µM. It also gave an MIC (P. aeruginosa ATCC27853) of 4 µM, an MIC (P. aeruginosa variant 1) of 2 µM and an MIC (P. aeruginosa variant 2) of 4 µM. The MIC (S. pullorum C79-13) was 1 µM, the MIC (S. typhimurium ATCC14028) was 2 µM and the MIC (S.aureus ATCC29213) was 2 µM. The MIC (S.epidermidis ATCC12228) was 4 µM, the MIC (S.faecalis ATCC29212) was 1 µM and the “GM (geometric mean of MIC values from all microbial strains)” value [3] was 2. For the same substance, the “MIC, Serum 25%” value (E. coli ATCC25922 [4]; E. coli ATCC25922, 25% human serum in MHB) was 4, the “MIC, Serum 50%” value (E. coli ATCC25922 [4]; E. coli ATCC25922, 50% human serum in MHB) was 16 and the “MIC, Heat 100°C” value (E. coli ATCC25922 [4]; E. coli ATCC25922, peptide incubated at 100°C for 1 h) was 1. The “MIC, Enzymes Caroid” value (E. coli ATCC25922 [4]; E. coli ATCC25922, peptide pre-incubated 1 h at 37°C with 1 mg/ml enzyme (method names papain)) was 8, the “MIC, Enzymes Pepsin” value (E. coli ATCC25922 [4]; E. coli ATCC25922, peptide pre-incubated 1 h at 37°C with 1 mg/ml pepsin) was 8 and the “MIC, Enzymes Proteinase K” value (E. coli ATCC25922 [4]; E. coli ATCC25922, peptide pre-incubated 1 h at 37°C with 1 mg/ml proteinase K) was over 128. The “MIC, Enzymes Trypsin” value (E. coli ATCC25922 [4]; E. coli ATCC25922, peptide pre-incubated 1 h at 37°C with 1 mg/ml trypsin) was 4, the “antimicrobial activity after heat (in words)” value (E. coli ATCC25922 [4]; E. coli, incubation at 100°C for approximately 1 h) was “remained stable” and the “cytoplasmic membrane depolarization (in words)” value (E. coli UB1005 [5]) was “able to permeabilize the bacterial cell membrane even at a lower concentration than their MICs”.

— PMC4063695, “Design of Embedded-Hybrid Antimicrobial Peptides with Enhanced Cell Selectivity and Anti-Biofilm Activity” (PLoS ONE, 2014)
